Experimental data: ChEMBL document CHEMBL3714732, “Small molecule modulators of g protein-coupled receptor six” (2001)

How the values were obtained:
Assay type in all cases: functional
[1] = molecular target: T1, G-protein coupled receptor 6 (Homo sapiens, UniProt P46095); test: Inverse agonist activity at rat G-protein GSalpha fused GPR6 (unknown origin) expressed in HEK293 cell membranes assessed as effect on [35S]GTPgammaS binding pre-incubated for 5 to 10 mins followed by 60 mins incubation in presence of [35S]GTPgammaS by scintillation proximity assay
T1 sequence (P46095 whole entry, the tested form may be a part): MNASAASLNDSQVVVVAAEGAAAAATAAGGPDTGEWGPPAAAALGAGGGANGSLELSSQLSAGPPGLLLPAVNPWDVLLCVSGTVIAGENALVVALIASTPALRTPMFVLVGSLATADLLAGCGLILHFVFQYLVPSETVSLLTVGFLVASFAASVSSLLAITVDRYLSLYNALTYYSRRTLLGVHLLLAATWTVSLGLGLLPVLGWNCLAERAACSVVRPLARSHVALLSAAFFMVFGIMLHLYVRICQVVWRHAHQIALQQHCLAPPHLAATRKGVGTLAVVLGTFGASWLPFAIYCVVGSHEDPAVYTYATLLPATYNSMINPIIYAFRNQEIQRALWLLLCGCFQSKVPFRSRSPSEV

[2] = molecular target: T1, G-protein coupled receptor 6; test: Inverse agonist activity at rat G-protein GSalpha fused GPR6 (unknown origin) expressed in HEK293 cell membranes assessed as cAMP accumulation pre-incubated for 30 mins by microbeta plate reader based assay
Rattus norvegicus [3] = test: Reduction in body weight gain in 24 hrs food-deprived Sprague-Dawley rat assessed as body weight at 100 umol/kg, po followed by standard chow pellets feeding and measured 8 hrs post dose (reference value: 19.5g)
Rattus norvegicus [4] = test: Reduction in water intake in 24 hrs food-deprived Sprague-Dawley rat assessed as water intake level at 100 umol/kg, po followed by standard chow pellets feeding and measured 8 hrs post dose (reference value: 19g)
Rattus norvegicus [5] = test: Reduction in food intake in 24 hrs food-deprived Sprague-Dawley rat assessed as food intake level per 2 hrs at 100 umol/kg, po followed by standard chow pellets feeding and measured 8 hrs post dose (reference value: 2 to 2.5g/2 hrs)
Rattus norvegicus [6] = test: Reduction in food intake in 24 hrs food-deprived Sprague-Dawley rat assessed as food intake level at 100 umol/kg, po followed by standard chow pellets feeding and measured 8 hrs post dose (reference value: 14 to 14.5g)
Rattus norvegicus [7] = test: Reduction in water intake in 24 hrs food-deprived Sprague-Dawley rat assessed as water intake level at 100 umol/kg, po followed by standard chow pellets feeding and measured 6 hrs post dose (reference value: 19.25 to 22.9g)
Rattus norvegicus [8] = test: Reduction in body weight gain in 24 hrs food-deprived Sprague-Dawley rat assessed as body weight gain level at 100 umol/kg, po followed by standard chow pellets feeding and measured 6 hrs post dose (reference value: 20.3g)
Rattus norvegicus [9] = test: Reduction in body weight gain in 24 hrs food-deprived Sprague-Dawley rat assessed as body weight gain level at 100 umol/kg, po followed by standard chow pellets feeding and measured 6 hrs post dose (reference value: 19.25 to 20.3g)

Compound	IC50 [1] [nM]	IC50 [2] [nM]	other results
O=C(/N=C1\SSC2=NCCN21)c1ccno1	330	100	–
O=C(/N=C1\SSC2=NCCN21)c1cc2ccccc2s1	130	190	Activity (Rattus norvegicus [3]): 14 g; Activity (Rattus norvegicus [4]): 19 g; Activity (Rattus norvegicus [5]): 1 g; Activity (Rattus norvegicus [6]): 9.6 g; Activity (Rattus norvegicus [7]): 20 g
O=C(NC(=S)N1CCNC1=S)c1ccccc1F	–	200000	–
O=C(/N=C1\SSC2=NCCN21)c1ccccc1	440	170	Activity (Rattus norvegicus [8]): 6.18 g
COc1cccc(C(=O)/N=C2\SSC3=NCCN32)c1	310	400	–
O=C(/N=C1\SSC2=NCCN21)c1cccc(F)c1	220	240	Activity (Rattus norvegicus [3]): 9 g; Activity (Rattus norvegicus [4]): 10 g; Activity (Rattus norvegicus [5]): 1 g; Activity (Rattus norvegicus [6]): 9.1 g; Activity (Rattus norvegicus [7]): 9.5 g; Activity (Rattus norvegicus [9]): 9.5 g
Cc1onc(-c2ccccc2)c1C(=O)/N=C1\SSC2=NCCN21	2460	–	–
O=C(/N=C1\SSC2=NCCN21)c1ccco1	250	110	–
O=C(/N=C1\SSC2=NCCN21)c1cnn(-c2ccc(Cl)cc2)c1C(F)(F)F	190	–	–
O=C(NC(=S)N1CCNC1=S)c1ccno1	2430	5830	–
O=C(NC(=S)N1CCNC1=S)c1cccc2ccccc12	200000	–	–
O=C(/N=C1\SSC2=NCCN21)c1ccc(F)cc1	370	200	Activity (Rattus norvegicus [6]): 7.93 g; Activity (Rattus norvegicus [7]): 8.5 g; Activity (Rattus norvegicus [9]): 4.03 g
O=C(/N=C1\SSC2=NCCN21)c1ccc(Cl)cc1	640	270	Activity (Rattus norvegicus [6]): 9.88 g; Activity (Rattus norvegicus [7]): 18.5 g; Activity (Rattus norvegicus [9]): 11.4 g
O=C(NC(=S)N1CCNC1=S)c1ccc2ccccc2c1	–	–	Activity (Rattus norvegicus [3]): 19.5 g; Activity (Rattus norvegicus [4]): 19 g; Activity (Rattus norvegicus [5]): 2.5 g
